Test results taken from patent publication US5585382A, “Polycyclic and heterocyclic chromophores for bis-imide tumoricidals” (The DuPont Merck Pharmaceutical Company, priority 1995, dated 1996).
Read-outs that look alike come from different tables or passages of the source.

Experiments:
[1] = test system: MX-1 human mammary carcinoma; test: In vivo human tumor xenograft MX-1 in nude mice; conditions: for Tumor Growth Inhibition activity against MX-1 (in words): NCI criteria
Text: (§1) The DLD-2 human colon tumor and MX-1 human mammary carcinoma, were originally obtained from a surgically-removed primary colon carcinoma or breast tumor respectively. The human tumor lines were maintained by serial passage in athymic nude mice. The MX-1 human mammary carcinoma is an established tumor used by the NCI. The DLD-2 human colon tumor has been well characterized. (Dexter, D. L.; Spremulli, E. N.; Matook, G. M.; Diamond, I.; Calabresi, P. Cancer Research 1982, 42, 5010; Dexter, D. L.; Barbosa, J. A.; Calabresi, P. Cancer Research 1979, 39, 1020.)
(§2) The mice used in these experiments were outbred Swiss mice or CD-1 mice bearing the nude (nu/nu) gene. On Day 0, male and female mice weighing 22-30 g are inoculated with 0.2 mL of a 25% tumor mince. This mince is prepared by mincing fresh tumor tissue, grown subcutaneously in passage mice, in sterile physiological saline. Palpable tumors weighing approximately 50 mg appear in the mice within 7-10 days after inoculation. The mice are pair matched by tumor weight and sex into groups of ten each and the test compounds and vehicle control are administered intravenously (i.v.) once daily for nine consecutive days. A >20% decrease in body weight on Day 5 following compound administration is considered an indication of toxicity. Tumor measurements and body weights are recorded once a week. Fifteen to eighteen days after the initial injection the mice are weighed, sacrificed, and the tumors excised and weighed.
(§3) The efficacy of the test compounds is determined by the extent of tumor growth inhibition in treated versus vehicle-treated control mice. Initial tumor weights (mg) are calculated from the tumor dimensions (mm) obtained from caliper measurements, using the formula for a prolate ellipsoid (mg of tumor weight=(length×width^2)/2). Net tumor weights are calculated for each of the treated groups and the vehicle-treated control group by subtracting the initial tumor weight from the final tumor weight (Day 15-18). Results are expressed as a percentage decrease relative to the mean tumor weight for the control vehicle-treated group.
(§4) Tumor Growth Inhibition= [formula]
(§5) The evaluation criteria of the National Cancer Institute for activity in in vivo cancer models were used. Tumor growth inhibition of 58-89% against the various xenografts is considered moderate activity, and inhibition of ≥90% is considered good to excellent activity. Actual tumor regressions (IR=incomplete regression; FR=full regression) indicate excellent to outstanding activity.

[2] = test system: Clone A human colon cancer cells; test: In vitro growth inhibition of Clone A cells (MTT, 72 hr); format: cell-based; conditions: read-out: Clone A IC50
Summary of the method: (§6)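 Cells seeded on day 0 (1×10^3 L1210 or 8×10^2 Clone A per well), graded compound concentrations added on day 1, then 72 hr at 37 °C. MTT 4 h, formazan dissolved in acidic isopropanol, read at 570/630 nm; IC50 from curve fit as half-maximal inhibition of population doublings, eight replicates.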

physchem = conditions: water
DLD-2 human colon tumor = test: In vivo human tumor xenograft DLD-2 in nude mice; conditions: for Tumor Growth Inhibition activity against DLD-2 (in words): NCI criteria
Text: as §1, §2, §3, §4, §5

[3] = test system: Murine leukemia L1210 cells; test: In vitro growth inhibition of L1210 cells (MTT, 72 hr); format: cell-based; conditions: Mus musculus, read-out: L1210 IC50
Summary of the method: as §6

[4] = i.v. once daily for nine days, nude mice
[5] = Mus musculus, iv, 216 h, read-out: MX-1 percent tumor growth inhibition
[6] = Mus musculus, iv, 216 h, read-out: MX-1 tumor regressions, IR=incomplete regression
[7] = Mus musculus, DLD2, iv, 216 h, read-out: DLD-2 percent tumor growth inhibition

Structure (SMILES): CS(=O)(=O)O.CS(=O)(=O)O.C[C@H](CNCCNC[C@@H](C)N1C(=O)c2cccc3c2c(cc2ccncc23)C1=O)N1C(=O)c2cccc3cc([N+](=O)[O-])cc(c23)C1=O [Example 118, (R,R)-1-[2-(6-Azaphenanthrene-1,10-dicarboximido)propylamino]-2-[2-(3-nitronaphthalene-1,8-dicarboximido)propylamino]ethane Dihydromethanesulfonate]
- responders at 3 mg/kg ([1]; Mus musculus, iv, 216 h, 3 mg/kg, i.v. once daily for nine days, nude mice, read-out: MX-1 tumor regressions, IR=incomplete regression (converted)): 100%
- Tumor Growth Inhibition activity against MX-1 (in words) [1, 4]: moderate to excellent
- IC50 ([2]; Clone A cells, 72 hr, MTT): 0.0008 µg/mL
- solubility (physchem): 65100 µg/mL
- DLD-2 tumor regressions, IR=incomplete regression (DLD-2 human colon tumor; 6 mg/kg, i.v. once daily for nine days, nude mice): 7/9
- inhibition in vivo at 6 mg/kg (DLD-2 human colon tumor; Mus musculus, DLD2, iv, 216 h, 6 mg/kg, i.v. once daily for nine days, nude mice, read-out: DLD-2 percent tumor growth inhibition): 99%
- Tumor Growth Inhibition activity against DLD-2 (in words) (DLD-2 human colon tumor; [4]): moderate to excellent
- IC50 ([3]; L1210 cells, 72 hr, MTT): 0.029 µg/mL

Structure (SMILES): CS(=O)(=O)O.CS(=O)(=O)O.Cc1cnc2c(c1)cc1c3c(cc([N+](=O)[O-])cc32)C(=O)N([C@H](C)CNC[C@@H](C)NC[C@@H](C)N2C(=O)c3cc([N+](=O)[O-])cc4c3c(cc3cc(C)cnc34)C2=O)C1=O [Example 25, (R,R)-1,2-bis-[2-(3-Nitro-7-methyl-5-azaphenanthrene-1, 10dicarboximido)propylamino]-(R)-1-methylethane Dihydromethanesulfonate]
- MX-1 tumor regressions, FR=full regression ([1]; 25 mg/kg, i.v. once daily for nine days, nude mice): 1/8
- inhibition in vivo at 25 mg/kg [1, 5]: 99%
- responders at 25 mg/kg [1, 6]: 75%
- Tumor Growth Inhibition activity against MX-1 (in words) [1, 4]: moderate to excellent
- IC50 ([2]; 72 h): 0.01 µg/mL
- solubility (Solubility in water): 4820 µg/mL
- inhibition in vivo at 25 mg/kg (DLD-2 human colon tumor; [7]): 97%
- IC50 ([3]; L1210, 72 h): 0.048 µg/mL

Structure (SMILES): CS(=O)(=O)O.CS(=O)(=O)O.Nc1cc2c3c(cc4cccnc4c3c1)C(=O)N(CCCNCCCCN1C(=O)c3cccc4cc([N+](=O)[O-])cc(c34)C1=O)C2=O [Example 112, 4-[3-(3-Amino-5-azaphenanthrene-1,10-dicarboximido)propylamino]-1-(3-nitronaphthalene-1,8-dicarboximido)butane Dihydromethanesulfonate]
- inhibition in vivo at 25 mg/kg ([1]; Mus musculus, iv, 216 h, 25 mg/kg, i.v. once daily for nine days, nude mice, read-out: MX-1 percent tumor growth inhibition): 98%
- responders at 25 mg/kg ([1]; Mus musculus, iv, 216 h, 25 mg/kg, i.v. once daily for nine days, nude mice, read-out: MX-1 tumor regressions, IR=incomplete regression (converted)): 37.5%
- Tumor Growth Inhibition activity against MX-1 (in words) [1, 4]: moderate to excellent
- IC50 ([2]; Clone A cells, 72 hr, MTT): 0.007 µg/mL
- solubility (Solubility in water): 7500 µg/mL
- inhibition in vivo at 12.5 mg/kg (DLD-2 human colon tumor; Mus musculus, DLD2, iv, 216 h, 12.5 mg/kg, i.v. once daily for nine days, nude mice, read-out: DLD-2 percent tumor growth inhibition): 48%
- IC50 ([3]; L1210 cells, 72 hr, MTT): 0.02 µg/mL

Structure (SMILES): CS(=O)(=O)O.CS(=O)(=O)O.Cc1cnc2c(c1)cc1c3c(cc([N+](=O)[O-])cc32)C(=O)N([C@H](C)CNCCNC[C@@H](C)N2C(=O)c3cc([N+](=O)[O-])cc4c3c(cc3cc(C)cnc34)C2=O)C1=O [Example 13, (R, R) -1,2-bis-[2-(3-Nitro-7-methyl-5-azaphenanthrene-1, 10-dicarboximido)propylamino]ethane Dihydromethanesulfonate]
- inhibition in vivo at 12.5 mg/kg [1, 5]: 99%
- responders at 12.5 mg/kg [1, 6]: 77.8%
- Tumor Growth Inhibition activity against MX-1 (in words) [1, 4]: moderate to excellent
- IC50 ([2]; 72 h): 0.03 µg/mL
- solubility (Solubility in water): 7100 µg/mL
- DLD-2 tumor regressions, IR=incomplete regression (DLD-2 human colon tumor; 12.5 mg/kg, i.v. once daily for nine days, nude mice): 1/9
- inhibition in vivo at 12.5 mg/kg (DLD-2 human colon tumor; [7]): 90%
- Tumor Growth Inhibition activity against DLD-2 (in words) (DLD-2 human colon tumor; [4]): moderate to excellent
- IC50 ([3]; L1210, 72 h): 0.065 µg/mL
